In article PMC10269871, “Small Molecule Inhibition of an Exopolysaccharide Modification Enzyme is a Viable Strategy To Block Pseudomonas aeruginosa Pel Biofilm Formation” (Microbiology Spectrum, 2023):

Biological target: T1, PelA (Pseudomonas aeruginosa, UniProt Q9HZE4)
T1 construct: PelAΔ46Chis6, residues 47 to 948, C-terminal His6
Test: fluorogenic AMMU esterase assay with purified PelA, Michaelis-Menten global noncompetitive fit (IC50 […]); reversible by gel filtration
Type: biochemical

T1 sequence (Q9HZE4 entry or part of it): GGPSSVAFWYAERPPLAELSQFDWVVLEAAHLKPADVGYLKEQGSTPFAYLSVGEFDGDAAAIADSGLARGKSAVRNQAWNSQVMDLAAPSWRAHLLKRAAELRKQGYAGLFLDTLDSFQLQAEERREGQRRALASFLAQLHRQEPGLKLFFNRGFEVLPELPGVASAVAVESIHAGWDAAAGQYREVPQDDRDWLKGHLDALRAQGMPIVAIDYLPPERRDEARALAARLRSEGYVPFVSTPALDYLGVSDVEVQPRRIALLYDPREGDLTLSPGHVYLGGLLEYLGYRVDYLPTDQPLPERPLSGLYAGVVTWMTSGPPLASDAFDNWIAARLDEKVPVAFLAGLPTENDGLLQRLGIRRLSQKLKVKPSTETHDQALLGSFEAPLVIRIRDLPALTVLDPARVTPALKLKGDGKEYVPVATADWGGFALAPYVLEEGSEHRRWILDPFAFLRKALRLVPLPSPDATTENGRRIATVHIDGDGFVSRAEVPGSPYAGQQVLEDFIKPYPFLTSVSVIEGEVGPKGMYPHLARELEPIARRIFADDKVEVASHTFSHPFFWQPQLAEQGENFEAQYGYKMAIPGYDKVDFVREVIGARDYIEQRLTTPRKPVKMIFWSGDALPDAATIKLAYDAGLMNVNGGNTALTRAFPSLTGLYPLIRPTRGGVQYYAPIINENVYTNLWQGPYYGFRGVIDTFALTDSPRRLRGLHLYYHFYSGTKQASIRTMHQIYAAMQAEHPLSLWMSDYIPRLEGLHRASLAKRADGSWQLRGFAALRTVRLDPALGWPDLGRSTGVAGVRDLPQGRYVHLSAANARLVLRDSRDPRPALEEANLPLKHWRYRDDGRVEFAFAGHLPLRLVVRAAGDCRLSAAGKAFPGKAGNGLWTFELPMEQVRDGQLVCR

Work on `CSC(=S)N/N=C/c1ccccn1` [SK-017154-O, methyl 2-(2-pyridinylmethylene) hydrazinecarbodithioate] yielded a Ki of 1130 ± 30 nM.
